For experiment [1], the target named is recombinant ROCK2 (amino acids 1-552) (Homo sapiens (Human), UniProt O75116). Kind of experiment: Z'-lyte kinase assay, ROCK2. Type of experiment: biochemical. As for the experimental part:
Determination of compounds ROCK inhibitory activity in vitro (Z'lyte assay): recombinant ROCK1 (amino acids 1-535) and ROCK2 (amino acids 1-552) proteins were purchased from ThermoFisher Scientific. Compounds activities were measured by Z'-lyte kinase kit (ThermoFisher Scientific) and IC50s were calculated.
Compounds activities were measured by Z'-lyte kinase kit (ThermoFisher Scientific). […] IC50s were calculated using the GraphPad Prism software with kinase activities data that were collected from 9 points serial dilution of compounds treatment. The ROCK inhibition in A7R5 cells and NIH3T3 (Acta2-Luc) cells was performed as described above.
The percent inhibition rate was calculated by normalizing the kinase activity value obtained with compound treatment against DMSO control value and then applied to the equation, […]. IC50's were calculated using the nonlinear regression curve fit function of the GraphPad Prism software with kinase activities data measured with 9 points 2-fold serial dilution of compounds treatment.

In experiment [2] the test system is ppMlc (T18/S19) levels in A7R5 cells. Kind of experiment: A7R5 in-cell ELISA assay (ppMlc). Type of experiment: cell-based, rat. As to conditions: Rattus norvegicus, A7R5, A7R5 cells, Table 2; read-out: pMLC IC50 (nM) A7R5. How it is done:
Determination of compounds ROCK inhibitory activity in A7R5 cells: rat aortic smooth muscle cell line A7R5 cells were maintained and treated in DMEM medium with 10% of fetal bovine serum. Cells were seeded with density of 5,000 cells/well in 96-well plates for 24 hours and subsequently treated 90 min with testing compounds. Cells were then fixed and processed according to the In-Cell ELISA Colorimetric Detection Kit manual (Thermo Scientific).
A7R5 cells were treated with 9 points 2 fold serial dilution of compounds and ppMlc (T18/S19) levels were determined in order to calculate the cellular IC50s of the compounds.
An A7R5 in-cell ELISA assay was performed to determine ROCK inhibition of test articles. A7R5 cells were treated with 9 points 2-fold serial dilution of compounds and ppMlc (T18/S19) levels were determined to calculate cellular IC50 values of the compounds. […] A7R5 cells were treated with 9 points 2-fold serial dilution of compounds and ppMlc (T18/S19) levels were determined to calculate cellular IC50 values of the compounds using the nonlinear regression curve fit function of the GraphPad Prism software.
For orientation: In an ELISA, binding on a coated surface is turned into a signal by an enzyme label.

For experiment [3], the system named is ACTA2-promoter-driven-luciferase in NIH3T3 cells. Kind of experiment: NIH3T3 Acta2-promoter driven-luciferase assay. It counts as cell-based. The settings on record: Mus musculus, plus TGFβ1, 24 hr, read-out: NIH3T3, Acta2-luc, IC50. How it is done:
NIH3T3 cells Acta2-promoter driven-luciferase assay: A NIH3T3 cell line stably expressing a luciferase reporter driven by the human ACTA2 gene promoter (−1000-1 bp) was established (NIH3T3-Acta2-luciferase). The cells were plated to confluence and treated with the test compounds plus TGFβ1 for 24 hr. Cells were then lysed and luciferase activity was measured using the LightSwitch luciferase kit from Active Motif.
ROCK inhibitors can be effectively rank ordered by ACTA2-promoter-driven-luciferase reporter cell assay. NIH3T3 cells stably expressing ACTA2-promoter-driven-luciferase were applied to measure ROCK compounds functional IC50's in cells. Cells were plated in 96 well plates to confluence and treated with 9 points serial dilution of compounds in combination with TGFβ1 for 24 hr. Luciferase activities were measured and compound's IC50's were calculated using the nonlinear regression curve fit function of the GraphPad Prism software. Compounds of the invention gave in cell IC50's under 200 nM, see FIG. 1c.

Results on 22 compounds are retold here after patent US11479533B2, “Inhibitors of Rho associated coiled-coil containing protein kinase” (KADMON CORPORATION, LLC, priority 2017, dated 2022).

Chain of recombinant ROCK2 (amino acids 1-552) (O75116 1-552): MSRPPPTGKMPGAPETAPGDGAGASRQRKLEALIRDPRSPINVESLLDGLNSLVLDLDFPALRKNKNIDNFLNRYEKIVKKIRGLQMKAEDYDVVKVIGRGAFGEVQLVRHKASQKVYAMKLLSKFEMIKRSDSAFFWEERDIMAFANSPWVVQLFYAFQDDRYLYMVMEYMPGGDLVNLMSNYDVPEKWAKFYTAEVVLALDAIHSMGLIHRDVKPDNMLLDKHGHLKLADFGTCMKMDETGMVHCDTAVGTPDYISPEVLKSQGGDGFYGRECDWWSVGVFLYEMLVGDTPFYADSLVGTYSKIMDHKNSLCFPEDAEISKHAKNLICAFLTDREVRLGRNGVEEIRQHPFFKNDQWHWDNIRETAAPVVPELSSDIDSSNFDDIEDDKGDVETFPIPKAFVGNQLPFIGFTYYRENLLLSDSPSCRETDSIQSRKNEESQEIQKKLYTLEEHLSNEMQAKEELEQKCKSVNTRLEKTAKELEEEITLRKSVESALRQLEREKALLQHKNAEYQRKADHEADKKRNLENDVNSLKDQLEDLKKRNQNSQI

Take `CCNC(C(=O)Nc1ccc(-c2cn[nH]c2)cc1)c1cccc(OC)c1` (stereo not drawn) [Example 13, N-(4-(1H-pyrazol-4-yl)phenyl)-2-(ethylamino)-2-(3-methoxyphenyl)acetamide]: the IC50 in experiment [1] worked out at 0.0063 µM; in experiment [2], 425 nM; in experiment [3], 1.57 µM.

On to `COCCNC(C(=O)Nc1cc(F)c(-c2cn[nH]c2)cc1OCCN(C)C)c1cccc(OC)c1` (stereo not drawn) [Example 48, N-(2-(2-(dimethylamino)ethoxy)-5-fluoro-4-(1H-pyrazol-4-yl)phenyl)-2-((2-methoxyethyl)amino)-2-(3-methoxyphenyl)acetamide], for which the half-maximal inhibitory concentration (IC50) in experiment [1] is 0.067 µM; in experiment [2], 314 nM; in experiment [3] it was 1.01 µM.

As for `CNCCNC(C(=O)Nc1ccc(-c2cn[nH]c2)cc1)c1cccc(OC)c1` (stereo not drawn) [Example 26, N-(4-(1H-pyrazol-4-yl)phenyl)-2-(3-methoxyphenyl)-2-((2-(methylamino)ethyl)amino)acetamide], the results for the half-maximal inhibitory concentration (IC50) in experiment [1], in experiment [2] and in experiment [3] were 0.0053 µM, 152 nM and 0.251 µM, respectively.

`CNC(C(=O)Nc1ccc(-c2cn[nH]c2)cc1)c1ccnc(OC)c1` (stereo not drawn) [Example 29, N-(4-(1H-pyrazol-4-yl)phenyl)-2-(2-methoxypyridin-4-yl)-2-(methylamino)acetamide]: the figures for the IC50 in experiment [1], in experiment [2] and in experiment [3] were 0.014 µM, 647 nM and 0.146 µM, respectively.

For `COCCN(C)C(C(=O)Nc1cc(F)c(-c2cn[nH]c2)cc1OCCN(C)C)c1cccc(OC)c1` (stereo not drawn) [Example 51, N-(2-(2-(dimethylamino)ethoxy)-5-fluoro-4-(1H-pyrazol-4-yl)phenyl)-2-((2-methoxyethyl)(methyl)amino)-2-(3-methoxyphenyl)acetamide], the IC50 in experiment [1] amounted to 0.0081 µM; in experiment [2], 54 nM; in experiment [3] it was 0.101 µM.

Take `CNC(C(=O)Nc1ccc(-c2cn[nH]c2)cc1)c1ccc(OC)c(F)c1` (stereo not drawn) [Example 23, N-(4-(1H-pyrazol-4-yl)phenyl)-2-(3-fluoro-4-methoxyphenyl)-2-(methylamino)acetamide]: the inhibition at 0.5 µM in experiment [1] (@ 0.5 μM, read-out: ROCK2 % inh (0.5 μM)) was 91%. For the same compound, the results for the concentration for half-maximal inhibition (IC50) in experiment [2] and in experiment [3] were 435 nM and 0.252 µM, respectively.

As for `COCCN(C)C(C(=O)Nc1ccc(-c2cn[nH]c2)cc1)c1cccc(OC)c1` (stereo not drawn) [Example 47, N-(4-(1H-pyrazol-4-yl)phenyl)-2-((2-methoxyethyl)(methyl)amino)-2-(3-methoxyphenyl)acetamide], the IC50 was determined as 0.03 µM in experiment [1], 321 nM in experiment [2] and 0.465 µM in experiment [3].

With `CN[C@H](C(=O)Nc1ccc(-c2cn[nH]c2)cc1)c1ccc(Cl)cc1` [Example 64, (S)—N-(4-(1H-pyrazol-4-yl)phenyl)-2-(4-chlorophenyl)-2-(methylamino)acetamide], the IC50 amounted to 0.024 µM in experiment [1], 379 nM in experiment [2] and 0.227 µM in experiment [3].

Take `COc1cccc(C(NCCN2CCOCC2)C(=O)Nc2ccc(-c3cn[nH]c3)cc2)c1` (stereo not drawn) [Example 50, N-(4-(1H-pyrazol-4-yl)phenyl)-2-(3-methoxyphenyl)-2-((2-morpholinoethyl)amino)acetamide]: the values for the IC50 in experiment [1], in experiment [2] and in experiment [3] were 0.0024 µM, 97 nM and 0.092 µM, respectively.

With `COc1cccc(C(NCCN(C)C)C(=O)Nc2ccc(-c3cn[nH]c3)cc2)c1` (stereo not drawn) [Example 57, N-(4-(1H-pyrazol-4-yl)phenyl)-2-((2-(dimethylamino)ethyl)amino)-2-(3-methoxyphenyl)acetamide], the values for the IC50 in experiment [1], in experiment [2] and in experiment [3] were 0.01 µM, 74 nM and 0.175 µM, respectively.

Turning to `CN[C@@H](C(=O)Nc1ccc(-c2cn[nH]c2)cc1)c1ccc(Cl)cc1` [Example 65, (R)—N-(4-(1H-pyrazol-4-yl)phenyl)-2-(4-chlorophenyl)-2-(methylamino)acetamide], the 50% inhibitory concentration (IC50) in experiment [1] amounted to 0.0012 µM; in experiment [2], 65 nM; in experiment [3] it was 0.051 µM.

Consider `COc1cccc(C(NCCOCC(F)(F)F)C(=O)Nc2ccc(-c3cn[nH]c3)cc2)c1` (stereo not drawn) [Example 54, N-(4-(1H-pyrazol-4-yl)phenyl)-2-(3-methoxyphenyl)-2-((2-(2,2,2-trifluoroethoxy)ethyl)amino)acetamide], for which the concentration for half-maximal inhibition (IC50) in experiment [1] was determined as 0.068 µM; in experiment [2], 1520 nM; in experiment [3], 2.67 µM.

As to `CNC(C(=O)Nc1ccc(-c2cn[nH]c2)cc1)c1cccc(C(=O)O)c1` (stereo not drawn) [Example 32, 3-(2-((4-(1H-pyrazol-4-yl)phenyl)amino)-1-(methylamino)-2-oxoethyl)benzoic acid], the IC50 in experiment [1] was 0.031 µM; in experiment [2], more than 5000 nM; in experiment [3], more than 5 µM.

On to `COc1cccc(C(NCCN2CCCC2)C(=O)Nc2ccc(-c3cn[nH]c3)cc2)c1` (stereo not drawn) [Example 52, N-(4-(1H-pyrazol-4-yl)phenyl)-2-(3-methoxyphenyl)-2-((2-(pyrrolidin-1-yl)ethyl)amino)acetamide], for which the IC50 in experiment [1] came to 0.017 µM; in experiment [2] it was 106 nM; in experiment [3], 0.675 µM.

Consider `CCNC(C(=O)Nc1ccc(-c2cn[nH]c2)cc1)c1ccc(F)cc1` (stereo not drawn) [Example 12, N-(4-(1H-pyrazol-4-yl)phenyl)-2-(ethylamino)-2-(4-fluorophenyl)acetamide], for which the figures for the IC50 in experiment [1], in experiment [2] and in experiment [3] were 0.03 µM, 458 nM and 0.735 µM, respectively.

Consider `COc1cccc(C(NCCCN(C)C)C(=O)Nc2ccc(-c3cn[nH]c3)cc2)c1` (stereo not drawn) [Example 38, N-(4-(1H-pyrazol-4-yl)phenyl)-2-((3-(dimethylamino)propyl)amino)-2-(3-methoxyphenyl)acetamide], for which the IC50 in experiment [1] stood at 0.0087 µM; in experiment [2], 338 nM; in experiment [3] it was 1.62 µM.

In the case of `CNC(C(=O)Nc1cc(F)c(-c2cn[nH]c2)cc1OCCN(C)C)c1cccc(OC)c1` (stereo not drawn) [Example 71, N-(2-(2-(dimethylamino)ethoxy)-5-fluoro-4-(1H-pyrazol-4-yl)phenyl)-2-(3-methoxyphenyl)-2-(methylamino)acetamide], the IC50 in experiment [1] was 0.003 µM; in experiment [2] it was 57 nM; in experiment [3], 0.301 µM.

For `CNC(C(=O)Nc1ccc(-c2cn[nH]c2)cc1)c1ccc2nc(C)sc2c1` (stereo not drawn) [Example 27, N-(4-(1H-pyrazol-4-yl)phenyl)-2-(methylamino)-2-(2-methylbenzo[d]thiazol-6-yl)acetamide], the results for the concentration for half-maximal inhibition (IC50) in experiment [1], in experiment [2] and in experiment [3] were 0.065 µM, 1680 nM and 0.699 µM, respectively.

`CCOCCNC(C(=O)Nc1ccc(-c2cn[nH]c2)cc1)c1cccc(OC)c1` (stereo not drawn) [Example 37, N-(4-(1H-pyrazol-4-yl)phenyl)-2-((2-ethoxyethyl)amino)-2-(3-methoxyphenyl)acetamide]: the IC50 came to 0.037 µM in experiment [1], 977 nM in experiment [2] and 2.31 µM in experiment [3].

As for `COCCNC(C(=O)Nc1ccc(-c2cn[nH]c2)cc1)c1cccc(OC)c1` (stereo not drawn) [Example 25, N-(4-(1H-pyrazol-4-yl)phenyl)-2-((2-methoxyethyl)amino)-2-(3-methoxyphenyl)acetamide], the results for the 50% inhibitory concentration (IC50) in experiment [1], in experiment [2] and in experiment [3] were 0.094 µM, 692 nM and 0.663 µM, respectively.

As to `CN[C@@H](C(=O)Nc1cc(F)c(-c2cn[nH]c2)cc1OCCN(C)C)c1cccc(OC)c1` [Example 72, (R)—N-(2-(2-(dimethylamino)ethoxy)-5-fluoro-4-(1H-pyrazol-4-yl)phenyl)-2-(3-methoxyphenyl)-2-(methylamino)acetamide], the IC50 in experiment [1] stood at 0.046 µM; in experiment [2], 382 nM; in experiment [3], 0.984 µM.

Turning to `COCCNC(C(=O)Nc1ccc(-c2cn[nH]c2)c(OC)c1)c1cccc(OC)c1` (stereo not drawn) [Example 56, N-(3-methoxy-4-(1H-pyrazol-4-yl)phenyl)-2-((2-methoxyethyl)amino)-2-(3-methoxyphenyl)acetamide], the IC50 worked out at 0.0053 µM in experiment [1], 115 nM in experiment [2] and 0.078 µM in experiment [3].

A word on the IC50: it is the point on the concentration scale where inhibition reaches its midpoint.
